# Where two headings read alike, the source gives them in different places.
# How the values were obtained:
# JAK1 = target: T1, JAK1 (Homo sapiens, UniProt P23458); assay: Biochemical JAK1 kinase assay (LanthaScreen); details: for Ki: read-out: JAK 1 (pKi) (converted)
# T1 construct: GST; purchased Life Technologies
# In short: (§1)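 Values are pKi, calculated by Cheng-Prusoff from IC50 obtained by robust 4-parameter fitting of percent inhibition. The kinase reaction used GFP-STAT1 peptide in HEPES pH 7.5 buffer with MgCl2, EGTA and Brij-35, ATP-initiated after compound pre-incubation, 1 h at ambient temperature.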
# JAK2 = target: T2, JAK2 (Homo sapiens, UniProt O60674); assay: Biochemical JAK2 kinase assay (LanthaScreen); details: for Ki: read-out: JAK 2 (pKi) (converted)
# T2 construct: GST; purchased Life Technologies
# In short: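 pKi values derive from pIC50 via Cheng-Prusoff, with IC50 from a 4-parameter fit of percent-inhibition TR-FRET data using Tb-anti-pSTAT1 (pTyr701) detection. Compound, GST-JAK2 and GFP-STAT1 substrate were pre-incubated 1 h, then ATP started a 1 h ambient reaction (HEPES pH 7.5, 10 mM MgCl2, 1% DMSO).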
# Tyk2 = target: T3, Tyk2 (Homo sapiens, UniProt P29597); assay: Biochemical Tyk2 kinase assay (LanthaScreen); details: for Ki: read-out: Tyk 2 (pKi) (converted)
# T3 construct: GST; purchased Life Technologies
# Method: A panel of four LanthaScreen JAK biochemical assays (JAK1, 2, 3 and Tyk2) were carried in a common kinase reaction buffer (50 mM HEPES, pH 7.5, 0.01% Brij-35, 10 mM MgCl2, and 1 mM EGTA). Recombinant GST-tagged JAK enzymes and a GFP-tagged STAT1 peptide substrate were obtained from Life Technologies.
# Serially or discretely diluted compounds were pre-incubated with each of the four JAK enzymes and the substrate in white 384-well microplates (Corning) at ambient temperature for 1 h. ATP was subsequently added to initiate the kinase reactions in 10 μL total volume, with 1% DMSO. […] Kinase reactions were allowed to proceed for 1 hour at ambient temperature before a 10 μL preparation of EDTA (10 mM final concentration) and Tb-anti-pSTAT1 (pTyr701) antibody (Life Technologies, 2 nM final concentration) in TR-FRET dilution buffer (Life Technologies) was added. The plates were allowed to incubate at ambient temperature for 1 h before being read on the EnVision reader (Perkin Elmer). Emission ratio signals (520 nm/495 nm) were recorded and utilized to calculate the percent inhibition values based on DMSO and background controls.
# For dose-response analysis, percent inhibition data were plotted vs. compound concentrations, and IC50 values were determined from a 4-parameter robust fit model with the Prism software (GraphPad Software). Results were expressed as pIC50 (negative logarithm of IC50) and subsequently converted to pKi (negative logarithm of dissociation constant, Ki) using the Cheng-Prusoff equation.
# [1] = system: IL-2 stimulated pSTAT5 in Tall-1 T cells; assay: Cellular JAK3 potency assay: inhibition of IL-2 stimulated pSTAT5 in Tall-1 T cells; assay type: cell-based, human; details: for IC50: Homo sapiens, read-out: Tall-1 (pIC50) (converted)
# In short: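 Inhibition of IL-2-induced pSTAT5 was quantified by AlphaLisa in Tall-1 cell lysates. Compound exposure lasted 1 h before 30 min stimulation with 300 ng/ml IL-2 final.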
# JAK3 = target: T4, JAK3 (Homo sapiens, UniProt P52333); assay: Biochemical JAK3 kinase assay (LanthaScreen); design: GST; purchased Life Technologies; details: for Ki: read-out: JAK 3 (pKi) (converted)
# T4 sequence (P52333 1-1124): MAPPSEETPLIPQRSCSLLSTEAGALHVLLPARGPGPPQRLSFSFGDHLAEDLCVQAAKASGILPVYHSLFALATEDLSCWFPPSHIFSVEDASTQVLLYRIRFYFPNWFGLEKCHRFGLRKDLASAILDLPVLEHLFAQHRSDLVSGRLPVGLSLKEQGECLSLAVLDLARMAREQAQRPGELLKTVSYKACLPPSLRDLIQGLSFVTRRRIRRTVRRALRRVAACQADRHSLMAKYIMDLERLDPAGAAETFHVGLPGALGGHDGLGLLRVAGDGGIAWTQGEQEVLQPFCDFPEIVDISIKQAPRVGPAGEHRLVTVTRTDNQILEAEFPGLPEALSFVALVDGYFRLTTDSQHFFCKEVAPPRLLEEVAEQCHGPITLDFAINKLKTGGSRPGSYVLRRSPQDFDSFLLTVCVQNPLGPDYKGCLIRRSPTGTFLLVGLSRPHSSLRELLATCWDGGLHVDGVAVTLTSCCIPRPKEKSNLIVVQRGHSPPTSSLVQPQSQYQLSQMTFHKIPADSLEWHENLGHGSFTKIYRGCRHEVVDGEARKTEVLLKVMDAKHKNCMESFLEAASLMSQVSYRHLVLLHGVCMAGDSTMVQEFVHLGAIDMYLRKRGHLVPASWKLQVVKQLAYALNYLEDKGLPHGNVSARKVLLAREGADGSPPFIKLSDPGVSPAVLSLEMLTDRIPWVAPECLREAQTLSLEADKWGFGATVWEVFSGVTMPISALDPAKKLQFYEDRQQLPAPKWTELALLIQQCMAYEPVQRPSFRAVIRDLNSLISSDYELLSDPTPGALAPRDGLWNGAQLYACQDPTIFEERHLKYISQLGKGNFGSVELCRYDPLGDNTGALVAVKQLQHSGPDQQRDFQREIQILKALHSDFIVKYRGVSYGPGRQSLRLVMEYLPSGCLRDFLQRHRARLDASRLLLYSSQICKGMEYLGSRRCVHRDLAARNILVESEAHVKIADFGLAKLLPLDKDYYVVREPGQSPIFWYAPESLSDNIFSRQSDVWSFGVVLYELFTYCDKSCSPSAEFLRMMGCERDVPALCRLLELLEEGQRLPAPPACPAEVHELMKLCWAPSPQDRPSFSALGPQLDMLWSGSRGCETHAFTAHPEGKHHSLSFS
# In short: as §1
# [2] = IL-2 stimulated pSTAT5 in Tall-1 T cells
# [3] = selectivity: difference of pKi JAK3 and pKi JAK1
# [4] = TALL-1, IL-2 stimulated pSTAT5, Tall-1 T cells
# [5] = selectivity JAK3 over JAK1, difference of pKi
# [6] = IL-2 stimulated pSTAT5, Tall-1 T cells
# T3 sequence (P29597 whole entry): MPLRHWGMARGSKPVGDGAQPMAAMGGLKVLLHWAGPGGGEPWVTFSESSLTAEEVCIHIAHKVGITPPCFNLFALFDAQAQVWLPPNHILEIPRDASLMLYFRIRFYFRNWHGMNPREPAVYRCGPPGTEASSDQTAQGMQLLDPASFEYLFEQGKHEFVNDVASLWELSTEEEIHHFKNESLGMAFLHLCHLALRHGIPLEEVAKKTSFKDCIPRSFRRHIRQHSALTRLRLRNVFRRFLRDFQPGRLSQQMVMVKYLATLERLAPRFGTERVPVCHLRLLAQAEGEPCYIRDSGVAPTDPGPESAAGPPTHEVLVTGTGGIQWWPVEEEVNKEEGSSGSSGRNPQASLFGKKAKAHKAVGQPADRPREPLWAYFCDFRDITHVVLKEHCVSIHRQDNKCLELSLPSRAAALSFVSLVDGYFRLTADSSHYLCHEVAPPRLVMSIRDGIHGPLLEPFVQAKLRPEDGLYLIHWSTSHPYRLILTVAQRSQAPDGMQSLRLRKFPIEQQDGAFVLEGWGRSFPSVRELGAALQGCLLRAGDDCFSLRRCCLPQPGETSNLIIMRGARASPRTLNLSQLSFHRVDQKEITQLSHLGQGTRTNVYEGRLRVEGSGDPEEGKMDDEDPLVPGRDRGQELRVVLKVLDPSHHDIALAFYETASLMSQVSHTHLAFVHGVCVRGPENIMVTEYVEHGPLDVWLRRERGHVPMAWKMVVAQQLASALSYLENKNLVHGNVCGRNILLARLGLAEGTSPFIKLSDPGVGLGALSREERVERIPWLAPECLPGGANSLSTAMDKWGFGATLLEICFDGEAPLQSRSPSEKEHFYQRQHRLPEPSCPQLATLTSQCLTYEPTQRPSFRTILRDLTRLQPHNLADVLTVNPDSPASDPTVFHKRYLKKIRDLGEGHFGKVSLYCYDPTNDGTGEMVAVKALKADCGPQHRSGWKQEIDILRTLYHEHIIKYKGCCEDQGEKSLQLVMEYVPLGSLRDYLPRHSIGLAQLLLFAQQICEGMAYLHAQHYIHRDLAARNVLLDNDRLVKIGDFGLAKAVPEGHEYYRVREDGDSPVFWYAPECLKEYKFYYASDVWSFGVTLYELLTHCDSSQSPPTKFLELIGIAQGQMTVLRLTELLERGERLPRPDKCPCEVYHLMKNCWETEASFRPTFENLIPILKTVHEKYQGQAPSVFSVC
# T2 sequence (O60674 whole entry): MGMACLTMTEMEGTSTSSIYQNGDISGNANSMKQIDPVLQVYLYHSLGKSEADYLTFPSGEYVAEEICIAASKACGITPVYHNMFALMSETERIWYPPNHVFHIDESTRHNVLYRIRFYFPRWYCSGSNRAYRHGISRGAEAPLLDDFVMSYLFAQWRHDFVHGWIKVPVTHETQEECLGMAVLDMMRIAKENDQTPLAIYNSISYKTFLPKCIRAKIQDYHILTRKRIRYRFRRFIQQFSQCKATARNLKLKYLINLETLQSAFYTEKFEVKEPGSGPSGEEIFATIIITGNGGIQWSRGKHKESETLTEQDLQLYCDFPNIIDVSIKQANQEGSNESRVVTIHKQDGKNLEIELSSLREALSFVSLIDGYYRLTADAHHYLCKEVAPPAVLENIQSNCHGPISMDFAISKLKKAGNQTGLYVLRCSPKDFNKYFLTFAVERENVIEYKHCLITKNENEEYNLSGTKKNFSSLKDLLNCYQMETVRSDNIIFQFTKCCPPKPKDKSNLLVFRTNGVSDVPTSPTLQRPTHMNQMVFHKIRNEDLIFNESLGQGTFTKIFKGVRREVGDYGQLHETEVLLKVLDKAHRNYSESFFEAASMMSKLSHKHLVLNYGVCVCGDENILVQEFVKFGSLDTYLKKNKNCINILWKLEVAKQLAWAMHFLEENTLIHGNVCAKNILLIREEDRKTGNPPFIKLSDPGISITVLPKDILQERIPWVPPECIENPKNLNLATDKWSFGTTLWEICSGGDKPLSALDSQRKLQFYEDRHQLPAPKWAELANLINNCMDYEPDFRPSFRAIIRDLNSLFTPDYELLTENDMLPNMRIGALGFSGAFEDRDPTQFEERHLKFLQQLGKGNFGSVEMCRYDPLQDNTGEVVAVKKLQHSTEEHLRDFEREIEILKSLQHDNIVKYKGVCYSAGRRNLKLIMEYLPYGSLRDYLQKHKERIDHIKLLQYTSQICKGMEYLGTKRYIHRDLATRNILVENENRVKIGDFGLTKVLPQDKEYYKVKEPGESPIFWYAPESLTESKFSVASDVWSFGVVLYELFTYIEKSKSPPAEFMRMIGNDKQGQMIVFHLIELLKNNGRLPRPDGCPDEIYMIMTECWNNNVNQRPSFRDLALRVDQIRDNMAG
# T1 sequence (P23458 whole entry): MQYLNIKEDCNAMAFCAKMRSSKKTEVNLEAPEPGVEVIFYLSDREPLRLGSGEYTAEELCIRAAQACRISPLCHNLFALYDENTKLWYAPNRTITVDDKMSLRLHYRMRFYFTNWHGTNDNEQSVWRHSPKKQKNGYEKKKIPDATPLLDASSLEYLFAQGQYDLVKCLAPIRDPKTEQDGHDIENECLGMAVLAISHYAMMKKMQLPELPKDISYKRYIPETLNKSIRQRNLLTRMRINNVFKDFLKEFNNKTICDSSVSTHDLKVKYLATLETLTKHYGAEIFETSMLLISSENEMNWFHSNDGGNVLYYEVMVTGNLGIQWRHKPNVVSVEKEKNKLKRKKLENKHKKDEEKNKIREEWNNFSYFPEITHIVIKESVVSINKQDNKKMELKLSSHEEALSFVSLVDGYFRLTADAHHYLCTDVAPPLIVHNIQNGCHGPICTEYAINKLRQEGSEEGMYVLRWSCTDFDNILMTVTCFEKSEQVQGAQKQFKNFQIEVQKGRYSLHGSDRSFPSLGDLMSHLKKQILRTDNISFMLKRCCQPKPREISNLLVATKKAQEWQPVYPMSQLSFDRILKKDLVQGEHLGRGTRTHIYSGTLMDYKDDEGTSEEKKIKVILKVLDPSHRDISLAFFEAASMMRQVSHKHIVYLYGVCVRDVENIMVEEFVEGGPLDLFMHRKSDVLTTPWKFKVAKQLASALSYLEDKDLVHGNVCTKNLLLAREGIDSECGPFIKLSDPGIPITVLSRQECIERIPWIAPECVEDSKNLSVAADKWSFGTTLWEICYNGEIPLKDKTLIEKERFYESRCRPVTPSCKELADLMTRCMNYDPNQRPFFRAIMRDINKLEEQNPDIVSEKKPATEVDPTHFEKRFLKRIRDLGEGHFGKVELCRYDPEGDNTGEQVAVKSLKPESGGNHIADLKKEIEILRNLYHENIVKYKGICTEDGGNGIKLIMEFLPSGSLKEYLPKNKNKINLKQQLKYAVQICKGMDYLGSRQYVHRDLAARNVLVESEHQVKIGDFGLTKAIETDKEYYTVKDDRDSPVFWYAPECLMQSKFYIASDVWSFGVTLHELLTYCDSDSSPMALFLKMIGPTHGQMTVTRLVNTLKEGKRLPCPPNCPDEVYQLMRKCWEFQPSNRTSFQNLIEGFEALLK
Compound,JAK 1 (pKi) (JAK1),JAK 2 (pKi) (JAK2),Tyk 2 (pKi) (Tyk2),"Tall-1 (pIC50) [1, 2]",JAK 3 (pKi) (JAK3),JAK3 (pKi)-JAK1 (pKi) (JAK3; [3]),Ki (JAK1) [nM],Ki (JAK2) [nM],Ki (Tyk2) [nM],"IC50 [1, 4] [nM]",Ki (JAK3) [nM],JAK3 (pKi)-JAK1 (pKi) (JAK3; [5]),"Tall-1 (pIC50) [1, 6]","IC50 ([1]; TALL-1, IL-2 stimulated pSTAT5 in Tall-1 T cells) [nM]"
C=CC(=O)N1CC(C)(COc2nc(-c3ccc(O)c(F)c3)cc3[nH]ncc23)C1 [Compound 3-59],E (a pKi value of 7 or below (Ki of 100 nM or above)),D (a pKi value between 7 and 8 (Ki between 100 nM and 10 nM)),E (a pKi value of 7 or below (Ki of 100 nM or above)),A (a pIC50 value≥7.5 (IC50≤32 nM)),B (a pKi value between 9 and 10 (Ki between 1 nM and 0.1 nM)),B (a value of 2.3 to 3),–,–,–,–,–,–,–,–
C=CC(=O)N1CC(COc2cc(-c3ccc(O)cc3)cc3[nH]ncc23)(OC)C1 [Compound 3-33],E (a pKi value of 7 or below (Ki of 100 nM or above)),E (a pKi value of 7 or below (Ki of 100 nM or above)),E (a pKi value of 7 or below (Ki of 100 nM or above)),B (a pIC50 value between 6.7 (included) and 7.5 (IC50 between 200 nM and 32 nM)),B (a pKi value between 9 and 10 (Ki between 1 nM and 0.1 nM)),B (a value of 2.3 to 3),–,–,–,–,–,–,–,–
C=CC(=O)N1CCC(N(C)c2cc(-c3ccc(O)c(F)c3)cc3[nH]ncc23)CC1 [Compound 7-9],–,–,–,–,–,–,> 100,10 to 100,> 100,< 31.6,< 0.1,A (a value of 3 or above),–,–
C=CC(=O)N1CC(C#N)(COc2nc(-c3ccc(O)c(Cl)c3)cc3[nH]ncc23)C1 [Compound 3-107],E (a pKi value of 7 or below (Ki of 100 nM or above)),E (a pKi value of 7 or below (Ki of 100 nM or above)),E (a pKi value of 7 or below (Ki of 100 nM or above)),A (a pIC50 value≥7.5 (IC50≤32 nM)),A (a pKi value≥10 (Ki≤0.1 nM)),A (a value of 3 or above),–,–,–,–,–,–,–,–
C=CC(=O)N1CCO[C@@H](C(=O)Nc2cc(-c3ccc(O)c(Cl)c3)cc3[nH]ncc23)C1 [Compound 13-2],E (a pKi value of 7 or below (Ki of 100 nM or above)),E (a pKi value of 7 or below (Ki of 100 nM or above)),E (a pKi value of 7 or below (Ki of 100 nM or above)),–,B (a pKi value between 9 and 10 (Ki between 1 nM and 0.1 nM)),–,–,–,–,–,–,A (a value of 3 or above),A (a pIC50 value≥7.5 (IC50≤32 nM)),–
CN(C)C/C=C/C(=O)N1CC(F)(COc2cc(-c3ccc(O)c(Cl)c3)cc3[nH]ncc23)C1 [Compound 3-42],–,–,–,–,–,B (a value of 2.3 to 3),0.1 to 1,10 to 100,> 100,–,0.1 to 1,–,–,< 31.6
C=CC(=O)N1CC(CN(C)c2cc(-c3ccc(O)c(Cl)c3)cc3[nH]ncc23)C1 [Compound 4-5],E (a pKi value of 7 or below (Ki of 100 nM or above)),E (a pKi value of 7 or below (Ki of 100 nM or above)),E (a pKi value of 7 or below (Ki of 100 nM or above)),A (a pIC50 value≥7.5 (IC50≤32 nM)),B (a pKi value between 9 and 10 (Ki between 1 nM and 0.1 nM)),A (a value of 3 or above),–,–,–,–,–,–,–,–
C=CC(=O)N1CC(COc2cc(-c3ccc(O)cc3)cc3[nH]nc(SC)c23)C1 [Compound 18-10],–,–,–,–,–,–,> 100,10 to 100,> 100,31.6 to 200,< 0.1,A (a value of 3 or above),–,–
C=CC(=O)N1CC[C@@H](Oc2nc(-c3ccc(O)cc3)nc3[nH]ncc23)C[C@H]1C [Compound 13-10],E (a pKi value of 7 or below (Ki of 100 nM or above)),E (a pKi value of 7 or below (Ki of 100 nM or above)),E (a pKi value of 7 or below (Ki of 100 nM or above)),–,B (a pKi value between 9 and 10 (Ki between 1 nM and 0.1 nM)),–,–,–,–,–,–,A (a value of 3 or above),B (a pIC50 value between 6.7 (included) and 7.5 (IC50 between 200 nM and 32 nM)),–
